Laboratory results from US20060040917A1, “Benzoxazepine derivatives as selective estrogen receptor modulators” (priority 2004, published 2006).

What was measured:
[1] = biological target: T1, human estrogen receptor α (Homo sapiens, UniProt P03372); assay: Estrogen Receptor α Flash Plate Assay; settings: displacement of radio-labeled estrogen (0.5 nM), FlashPlate, 1 h room temperature; read-out: ERα Binding IC50
T1 construct: purchased Panvera
T1 sequence (P03372 1-595): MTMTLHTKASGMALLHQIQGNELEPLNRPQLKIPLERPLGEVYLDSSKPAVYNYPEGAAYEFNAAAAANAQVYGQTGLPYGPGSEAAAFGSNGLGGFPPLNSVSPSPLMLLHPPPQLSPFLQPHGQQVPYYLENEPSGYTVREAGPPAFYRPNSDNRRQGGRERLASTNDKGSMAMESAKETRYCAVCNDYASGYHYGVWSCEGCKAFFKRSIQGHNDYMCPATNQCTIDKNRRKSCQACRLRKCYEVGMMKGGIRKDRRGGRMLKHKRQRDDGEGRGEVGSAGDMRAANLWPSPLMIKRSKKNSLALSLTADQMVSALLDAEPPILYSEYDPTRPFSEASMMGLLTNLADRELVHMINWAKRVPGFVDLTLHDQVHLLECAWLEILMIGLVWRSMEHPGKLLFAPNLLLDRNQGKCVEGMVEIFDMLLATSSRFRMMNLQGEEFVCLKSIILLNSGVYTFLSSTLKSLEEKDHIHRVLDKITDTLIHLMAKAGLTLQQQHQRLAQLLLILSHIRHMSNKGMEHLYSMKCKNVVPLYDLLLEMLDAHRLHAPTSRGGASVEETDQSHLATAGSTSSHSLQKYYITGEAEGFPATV
Description: Estrogen Receptor α Flash Plate Assay
This assay monitors binding of radio-labeled estrogen to the estrogen receptor. It is performed on a BioMek 2000 (Beckman). Plates are read in a scintillation counter (Packard TopCount), with decreased counts an indication of binding of a compound to the receptor. The assay was run according to the procedure described by Allan, et al., Anal. Biochem. (1999), 275(2), 243-247.
On day one, 100 μL of Estrogen Screening Buffer (ESB, Panvera) containing 5 mM dithiothreitol (DTT, Panvera), 0.5 μg mouse anti-estrogen receptor monoclonal antibody (SRA-1010, Stressgen) and 50 ng purified human estrogen receptor α (Panvera) were added to each well of a 96 well FlashPlate Plus plate crosslinked with goat anti-mouse antibodies (NEN Life Sciences). The plate was sealed and incubated at 4° C. overnight.
On day two, each well was washed three times with 200 μL PBS, pH 7.2, at room temperature. To each well was then added 98 μL radio-labeled estrogen (0.5 nM, which equals 6 nCi for a 120 Ci/mmol batch, Amersham), diluted in ESB and 5 mM dithiothreitol (DTT). To individual wells were then added 2.5 μL test compound diluted in 30% (v/v) dimethyl sulfoxide/50 mM HEPES, pH 7.5. The wells were mixed three times by aspiration, the plate sealed and incubated at room temperature for one hour. The wells were then counted for 1 min in a TopCount scintillation counter (Packard).
(§1) Representative compound of the present invention were tested according to the procedure described above for binding to the Estrogen Receptor a and Estrogen Receptor β, with results as listed in Table 6.

hER-β = biological target: T2, hER-β (Homo sapiens, UniProt Q92731); assay: Estrogen Receptor β Fluorescence Polarization Assay; settings: displacement of Fluormone ES2, fluorescence polarization, 1 h room temperature; read-out: ERβ Binding IC50
T2 construct: purchased Panvera
From the text: Estrogen Receptor β Fluorescence Polarization Assay
This assay monitors binding of a fluorescent analog of estrogen (Fluormone ES2, Panvera) to the estrogen receptor. Plates are read in a fluorometer that can be set to polarization mode. A decrease in […] relative to vehicle control is an indication of binding of a compound to the receptor.
It is crucial to avoid introduction of air bubbles into the reaction in each well of the 96 well plate throughout this procedure. (Bubbles on the surface of the reaction disrupt light flow, affecting the polarization reading.) However, it is also crucial to effectively mix the reaction components upon addition to the well.
On ice, a 2× standard mixture of Assay Buffer (Panvera), 10 nM DTT and 40 nM ES2 was prepared. On ice, a 2× reaction mixture of Assay Buffer (Panvera), and 20 nM hER-β (Panvera) and 40 nM ES2 was also prepared.
Dilutions of test compound were prepared in 30% (v/v) dimethyl sulfoxide/50 mM HEPES, pH 7.5. At this point, the dilutions were 40× the final required concentration.
The standard mixture at 50 μL was then added to each well. The reaction mixture at 48 μL was added to all wells. The compound dilution at 2.5 μL was added to the appropriate wells. The reaction mixtures were mixed using a manual pipette, a roll of aluminum foil adhesive cover was placed on the plate and the plate incubated at room temperature for 1 hour.
Each well on the plate was then read in an LjL Analyst with an excitation wavelength of […] and an emission wavelength of 538.
as §1

T2 sequence (Q92731 whole entry): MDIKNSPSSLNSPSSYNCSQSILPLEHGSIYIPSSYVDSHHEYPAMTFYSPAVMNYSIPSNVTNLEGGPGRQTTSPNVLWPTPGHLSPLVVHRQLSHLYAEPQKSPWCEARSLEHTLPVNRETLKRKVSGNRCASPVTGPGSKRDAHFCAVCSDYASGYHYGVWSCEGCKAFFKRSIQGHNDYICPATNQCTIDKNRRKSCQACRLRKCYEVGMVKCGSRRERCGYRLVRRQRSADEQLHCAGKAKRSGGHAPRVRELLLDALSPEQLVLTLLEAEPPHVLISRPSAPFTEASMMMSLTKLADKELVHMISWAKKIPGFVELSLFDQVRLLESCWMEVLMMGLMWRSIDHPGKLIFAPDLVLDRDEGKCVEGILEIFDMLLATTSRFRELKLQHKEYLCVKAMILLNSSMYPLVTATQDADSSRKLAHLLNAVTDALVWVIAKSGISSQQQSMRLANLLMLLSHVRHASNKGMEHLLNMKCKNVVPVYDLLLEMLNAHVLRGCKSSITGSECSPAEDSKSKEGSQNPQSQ

SMILES | IC50 [1] | IC50 (hER-β)
COCOc1ccc(C2COc3cc(OCOC)ccc3N(Cc3cccc(OCCN4CCCCC4)c3)C2)cc1 (centres unmarked) [Compound 20, 3-Methoxymethoxy-7-(4-methoxymethoxy-phenyl)-9-[3-(2-piperidin-1-yl-ethoxy)-benzyl]-6,7,8,9-tetrahydro-5-oxa-9-aza-benzocycloheptene] | > 1000 nM | > 1000 nM
CC(C)(C)C(=O)Oc1ccc(C2COc3cc(OC(=O)C(C)(C)C)ccc3N(Cc3cccc(OCCN4CCCCC4)c3)C2)cc1 (centres unmarked) [Compound 26] | > 1000 nM | > 1000 nM
CC(=O)Oc1cccc(C2COc3cc(OC(C)=O)ccc3N(Cc3ccc(OCCN4CCCCC4)cc3)C2)c1 (centres unmarked) [Compound 16] | 120 nM | 670 nM
CN(C)CCOc1ccc(C(=O)N2CC(c3cccc(O)c3)COc3cc(O)ccc32)cc1 (centres unmarked) [Compound 9] | 530 nM | 26000 nM
CC(=O)Oc1cccc(C2COc3cc(OC(C)=O)ccc3N(C(=O)c3ccc(OCCCl)cc3)C2)c1 (centres unmarked) [Compound 15] | 100 nM | 2600 nM
Oc1ccc(C2COc3cc(O)ccc3N(Cc3cccc(OCCN4CCOCC4)c3)C2)cc1 (centres unmarked) [Compound 23] | 350 nM | 870 nM
COCOc1ccc(C2COc3cc(OCOC)ccc3N(Cc3cccc(OCCCl)c3)C2)cc1 (centres unmarked) [Compound 19, 9-[3-(2-Chloro-ethoxy)-benzyl]-3-methoxymethoxy-7-(4-methoxymethoxy-phenyl)-6,7,8,9-tetrahydro-5-oxa-9-aza-benzocycloheptene] | > 1000 nM | > 1000 nM
Oc1ccc(C2COc3cc(O)ccc3N(Cc3ccc(OCCN4CCCCC4)cc3)C2)cc1 (centres unmarked) [Compound 12, 7-(4-Hydroxy-phenyl)-9-[4-(2-piperidin-1-yl-ethoxy)-benzyl]-6,7,8,9-tetrahydro-5-oxa-9-aza-benzocyclohepten-3-ol] | 430 nM | 1100 nM
COCOc1ccc(C2COc3cc(OCOC)ccc3N(Cc3cccc(OCCN4CCOCC4)c3)C2)cc1 (centres unmarked) [Compound 21] | > 1000 nM | > 1000 nM
O=C(c1cccc(OCCN2CCCCC2)c1)N1CC(c2cccc(O)c2)COc2cc(O)ccc21 (centres unmarked) [Compound 13, [3-Hydroxy-7-(3-hydroxy-phenyl)-7,8-dihydro-6H-5-oxa-9-aza-benzocyclohepten-9-yl]-[3-(2-piperidin-1-yl-ethoxy)-phenyl]-methanone] | 81 nM | 2600 nM
COc1cccc(C2COc3cc(OC)ccc3N(C(=O)c3ccc(OCCN(C)C)cc3)C2)c1 (centres unmarked) [Compound 8] | 2900 nM | > 100000 nM

The next compounds have a lower IC50 [1] than those just listed; values first:

IC50 [1] | IC50 (hER-β) | SMILES
66 nM | 88 nM | Oc1ccc(C2COc3cc(O)ccc3N(Cc3cccc(OCCCl)c3)C2)cc1 (centres unmarked) [Compound 18, 9-[3-(2-Chloro-ethoxy)-benzyl]-7-(4-hydroxy-phenyl)-6,7,8,9-tetrahydro-5-oxa-9-aza-benzocyclohepten-3-ol]
56 nM | 92 nM | Oc1cccc(C2COc3cc(O)ccc3N(Cc3cccc(OCCCl)c3)C2)c1 (centres unmarked) [Compound 24]
52 nM | 560 nM | Oc1ccc(C2COc3cc(O)ccc3N(Cc3cccc(OCCN4CCCCC4)c3)C2)cc1 (centres unmarked) [Compound 22, 7-(4-Hydroxy-phenyl)-9-[3-(2-piperidin-1-yl-ethoxy)-benzyl]-6,7,8,9-tetrahydro-5-oxa-9-aza-benzocyclohepten-3-ol]
24 nM | 1100 nM | O=C(c1ccc(OCCCl)cc1)N1CC(c2cccc(O)c2)COc2cc(O)ccc21 (centres unmarked) [Compound 14]
22 nM | 300 nM | Oc1cccc(C2COc3cc(O)ccc3N(Cc3cccc(OCCN4CCCCC4)c3)C2)c1 (centres unmarked) [Compound 25]
